From the supplement of paper PMC4862054

Tests used:
Settings in all cases: incubation time: 72 h
[1] = test system: HCC1937; experiment: normalised response (% of control), CellTiter-Glo; higher = more viable cells (100 = DMSO, 0 = benzethonium chloride kill control)
Procedure: (§1)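 DSRT, 72 h incubation, CellTox Green / CellTiter-Glo readout. Signal is normalised to DMSO and benzethonium chloride controls. Value is the normalised response at dose 3.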

[2] = test system: CAL-51; experiment: as above
Procedure: as §1

[3] = test system: CAL-148; experiment: as above
Procedure: as §1

[4] = test system: MDA-MB-231; experiment: as above
Procedure: as §1

[5] = test system: Hs578T; experiment: as above
Procedure: as §1

[6] = test system: MDA-MB-468; experiment: as above
Procedure: as §1

[7] = test system: SK-BR-3; experiment: as above
Procedure: as §1

[8] = test system: CAL-120; experiment: as above
Procedure: as §1

[9] = test system: MCF-10A; experiment: as above
Procedure: as §1

[10] = test system: MFM-223; experiment: as above
Procedure: as §1

[11] = test system: HDQ-P1; experiment: as above
Procedure: as §1

[12] = test system: HCC1599; experiment: as above
Procedure: as §1

[13] = test system: BT-549; experiment: as above
Procedure: as §1

[14] = test system: HCC1143; experiment: as above
Procedure: as §1

[15] = test system: CAL-85-1; experiment: as above
Procedure: as §1

[16] = test system: DU-4475; experiment: as above
Procedure: as §1

[17] = test system: MDA-MB-453; experiment: as above
Procedure: as §1

[18] = test system: MDA-MB-436; experiment: as above
Procedure: as §1

[19] = test system: BT-474; experiment: as above
Procedure: as §1

[20] = test system: HCC1937; experiment: normalised response (% of control), CellTox Green; higher = less cell death (100 = DMSO, 0 = benzethonium chloride kill control)
Outline: (§2)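 The table gives the normalised signal for a single concentration in each entry. Breast cancer cell lines were seeded (20 µl suspension) into 384-well plates holding compound at 5 concentrations in 10-fold steps over a compound-specific 10,000-fold range and incubated 72 h, then read for CellTox Green fluorescence (485/520 nm) and CellTiter-Glo luminescence. Normalisation on each plate used 0.1 % DMSO (100) and a positive kill control (0).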

[21] = test system: CAL-51; experiment: as above
Outline: as §2

[22] = test system: CAL-148; experiment: as above
Outline: as §2

[23] = test system: MDA-MB-231; experiment: as above
Outline: as §2

[24] = test system: Hs578T; experiment: as above
Outline: as §2

[25] = test system: CAL-120; experiment: as above
Outline: as §2

[26] = test system: MCF-10A; experiment: as above
Outline: as §2

[27] = test system: MFM-223; experiment: as above
Outline: as §2

[28] = test system: HDQ-P1; experiment: as above
Outline: as §2

[29] = test system: HCC1599; experiment: as above
Outline: as §2

[30] = test system: BT-549; experiment: as above
Outline: as §2

[31] = test system: HCC1143; experiment: as above
Outline: as §2

[32] = test system: CAL-85-1; experiment: as above
Outline: as §2

[33] = test system: DU-4475; experiment: as above
Outline: as §2

[34] = test system: MDA-MB-453; experiment: as above
Outline: as §2

[35] = test system: MDA-MB-436; experiment: as above
Outline: as §2

[36] = test system: BT-474; experiment: as above
Outline: as §2

[37] = test system: MDA-MB-468; experiment: as above
Outline: as §2

Row | SMILES | normalised response [1] | normalised response [2] | normalised response [3] | normalised response [4] | normalised response [5] | normalised response [6] | normalised response [7] | normalised response [8] | normalised response [9] | normalised response [10] | normalised response [11] | normalised response [12] | normalised response [13] | normalised response [14] | normalised response [15] | normalised response [16] | normalised response [17] | normalised response [18] | normalised response [19] | normalised response [20] | normalised response [21] | normalised response [22] | normalised response [23] | normalised response [24] | normalised response [25] | normalised response [26] | normalised response [27] | normalised response [28] | normalised response [29] | normalised response [30] | normalised response [31] | normalised response [32] | normalised response [33] | normalised response [34] | normalised response [35] | normalised response [36] | normalised response [37]
1 | CN1CCc2c(c3ccccc3n2Cc2ccc(C(=O)NO)cc2)C1 [Tubastatin A] (100 nM) | 101% | 91.8% | 106% | 99.9% | 102% | 95.3% | 97.5% | 98.1% | 102% | 96.9% | 95.4% | 99.2% | 103% | 104% | 98.2% | 102% | 96.3% | 93.1% | 96.8% | 92.5% | 105% | 99.3% | 116% | 110% | 103% | 101% | 93.8% | 101% | 99.9% | 86.2% | 105% | 102% | 104% | 107% | 109% | 101% | –
2 | NC(=O)c1cccc2cn(-c3ccc([C@@H]4CCCNC4)cc3)nc12 [MK-4827] (100 nM) | 102% | 90.9% | 112% | 106% | 95.1% | 94.7% | 104% | 105% | 110% | 107% | 101% | 90% | 91.6% | 107% | 101% | 99.8% | 99.4% | 95.8% | 109% | 111% | 89.4% | 104% | 107% | 116% | 102% | 84.8% | 82.5% | 78% | 115% | – | 110% | 102% | 101% | 91.6% | – | 88.2% | 136%
3 | O=NN(CCCl)C(=O)NC1CCCCC1 [Lomustine] (100 nM) | 89.4% | 104% | 91.5% | 99.4% | 99.6% | 96.1% | 102% | 97.7% | 98.4% | 110% | 104% | 90.1% | 103% | 104% | 95.6% | 107% | 101% | 101% | 104% | 96.5% | 109% | – | 110% | 102% | 102% | 103% | 105% | 96.1% | 101% | 77.1% | 104% | 113% | 103% | 106% | 108% | 101% | 103%
4 | NC1(c2ccc(-c3nc4ccn5c(=O)[nH]nc5c4cc3-c3ccccc3)cc2)CCC1 [MK-2206] (10 nM) | 96.5% | 74.5% | 107% | 108% | 102% | 102% | 93.8% | 102% | 110% | 104% | 95.5% | 84.7% | 107% | 104% | 99.8% | 102% | 88.5% | 102% | 102% | 81.7% | 83.6% | – | 115% | 96.1% | 103% | 111% | 104% | 114% | 118% | 86.6% | 110% | 95.4% | 103% | 110% | 95.6% | 99% | 139%
5 | Cc1cc2c(F)c(Oc3ncnn4cc(OC[C@@H](C)O)c(C)c34)ccc2[nH]1 [Brivanib] (10 nM) | 101% | 106% | 108% | 111% | 102% | 105% | 115% | 100% | 113% | 108% | 99.5% | 104% | 100% | 105% | 102% | 99.6% | 102% | 112% | 105% | 82% | 108% | 103% | 111% | 88.4% | 98% | 89.7% | – | 72.3% | 104% | 60.1% | 111% | 106% | 104% | 109% | 96% | 99.8% | 91.2%
6 | CN1CCN(c2nc(C3=C(c4c[nH]c5ccccc45)C(=O)NC3=O)c3ccccc3n2)CC1 [Sotrastaurin] (100 nM) | 97.8% | 112% | 97.2% | 102% | 97.5% | 99.3% | 100% | 98.1% | 87.5% | 92.1% | 96.1% | 99.1% | 98.7% | 98.8% | 102% | 94.3% | 95.6% | 98.9% | 98.2% | 64.6% | 98% | 98.4% | 67% | 93.3% | 83.6% | 91.4% | – | 101% | 97.2% | 99.3% | 76.4% | 113% | 99.6% | 97.8% | 96.6% | 102% | 162%
7 | Nc1nc(Cl)nc2c1ncn2[C@@H]1O[C@H](CO)[C@@H](O)[C@@H]1F [Clofarabine] (100 nM) | 84.1% | 76% | 96.2% | 83.9% | 98.6% | 94.3% | 82.6% | 93.8% | 109% | 104% | 98.5% | 76.2% | 79.5% | 96.4% | 93.2% | 99.4% | 105% | 90.3% | 82.3% | 62.3% | 86% | 92.7% | 106% | 90.3% | 107% | 99.3% | 99.3% | 100% | 103% | 102% | 105% | 113% | 114% | 106% | 102% | 104% | –
8 | O=C(c1cc(Cc2n[nH]c(=O)c3ccccc23)ccc1F)N1CCN(C(=O)C2CC2)CC1 [Olaparib] (100 nM) | 96% | 66.4% | 98.5% | 93.8% | 97.7% | 105% | 88.8% | 91.4% | 101% | 99.2% | 96.8% | 103% | 100% | 94.4% | 102% | 95.8% | 107% | 91.3% | 96.5% | 94.9% | 81.9% | 79.6% | 97.4% | 110% | 95% | 98.9% | 103% | 101% | 101% | 105% | 110% | 103% | 101% | 103% | 88.4% | 96.5% | –
9 | COc1cc2c(N3CCN(C(=O)Nc4ccc(OC(C)C)cc4)CC3)ncnc2cc1OCCCN1CCCCC1 [Tandutinib] (10 nM) | 97.4% | 69.2% | 102% | 103% | 101% | 103% | 100% | 100% | 97.8% | 100% | 99.7% | 106% | 104% | 98.1% | 109% | 97.1% | 96.3% | 106% | 98.9% | 81.3% | 95% | – | 99.9% | 69.4% | 87.9% | 104% | 78.6% | 90.3% | 96.8% | 98.8% | 86.5% | 99% | 98% | 90.3% | 101% | 84.8% | 63.1%
